Measurements: the supplement of paper PMC10307832

compound: Cn1nnc2c(C(N)=O)ncn2c1=O [Temozolomide] + NC(=O)Nc1cc(-c2cccc(F)c2)sc1C(=O)N[C@H]1CCCNC1 [AZD7762] (partner 0.2 µM); assay: relative viability (nuclei count vs DMSO), 5 days (fraction); higher = more cells survive; details: first compound 0.2 µM
Method in brief: (§1)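 Five library-drug doses in √10 steps were combined with a fixed anchor-drug dose, or a single drug was given alone, by pin tool to lung cancer cell lines in 1536-well plates the day after seeding. Nuclei were stained and counted after 5 days. Relative viability is the nuclei count in treated wells over that in vehicle wells, taken as the median of duplicate plates.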

Cell Line	relative viability
NCI-H1395	0.385
NCI-H1437	1.09
NCI-H1651	0.392
NCI-H1666	0.795
NCI-H1734	0.642
NCI-H1755	0.487
NCI-H1792	0.9
NCI-H1915	0.757
NCI-H1944	0.432
NCI-H1993	0.678
NCI-H2085	0.878

same assay, conditions: first compound 0.6325 µM

Cell Line	relative viability
LK-2	0.372
LOU-NH91	0.784
LU99A	0.355
LXF-289	1.08
NCI-H23	0.278
NCI-H322M	0.559
NCI-H358	0.466
NCI-H441	1.12
NCI-H460	0.643
NCI-H596	1.09
NCI-H647	0.549
NCI-H650	1.16
NCI-H727	0.521
NCI-H838	0.977
NCI-H1355	0.743
NCI-H1395	0.381
NCI-H1437	1.12
NCI-H1651	0.403
NCI-H1666	0.923
NCI-H1734	0.623
NCI-H1755	0.396
NCI-H1792	0.775
NCI-H1793	0.414
NCI-H1915	0.652
NCI-H1944	0.505
NCI-H1975	0.778
NCI-H1993	0.764
NCI-H2085	1.03

same assay, conditions: first compound 2 µM

Cell Line	relative viability
LK-2	0.404
LOU-NH91	0.836
LU99A	0.353
LXF-289	1.08
NCI-H23	0.282
NCI-H322M	0.545
NCI-H358	0.533
NCI-H441	1.04
NCI-H460	0.694
NCI-H596	1.17
NCI-H647	0.392
NCI-H650	0.938
NCI-H727	0.512
NCI-H838	0.961
NCI-H1355	0.716
NCI-H1395	0.454
NCI-H1437	1.14
NCI-H1651	0.478
NCI-H1666	0.858
NCI-H1734	0.646
NCI-H1755	0.485
NCI-H1792	0.711
NCI-H1793	0.605
NCI-H1915	0.584
NCI-H1944	0.391
NCI-H1975	0.85
NCI-H1993	1.03
NCI-H2085	0.938

same assay, conditions: first compound 6.325 µM

Cell Line	relative viability
LK-2	0.254
LOU-NH91	0.79
LU99A	0.421
LXF-289	1.06
NCI-H23	0.181
NCI-H322M	0.547
NCI-H358	0.408
NCI-H441	1.13
NCI-H460	0.611
NCI-H596	1.02
NCI-H647	0.205
NCI-H650	0.953
NCI-H727	0.606
NCI-H838	0.89
NCI-H1355	0.729
NCI-H1395	0.332
NCI-H1437	1.12
NCI-H1651	0.465
NCI-H1666	0.7
NCI-H1734	0.488
NCI-H1755	0.385
NCI-H1792	0.532
NCI-H1793	0.401
NCI-H1915	0.281
NCI-H1944	0.441
NCI-H1975	0.679
NCI-H1993	0.692
NCI-H2085	0.928

same assay, conditions: first compound 20 µM

Cell Line	relative viability
LK-2	0.271
LOU-NH91	0.75
LU99A	0.43
LXF-289	1.07
NCI-H23	0.255
NCI-H322M	0.455
NCI-H358	0.369
NCI-H441	1.13
NCI-H460	0.619
NCI-H596	1.29
NCI-H647	0.145
NCI-H650	0.879
NCI-H727	0.412
NCI-H838	0.881
NCI-H1355	0.751
NCI-H1395	0.362
NCI-H1437	1.14
NCI-H1651	0.419
NCI-H1666	0.657
NCI-H1734	0.559
NCI-H1755	0.638
NCI-H1792	0.676
NCI-H1793	0.411
NCI-H1915	0.27
NCI-H1944	0.696
NCI-H1975	0.78
NCI-H1993	0.71
NCI-H2085	0.972

compound: Cn1nnc2c(C(N)=O)ncn2c1=O [Temozolomide] + Nc1ncn([C@H]2C[C@H](O)[C@@H](CO)O2)c(=O)n1 [Decitabine] (partner 2 µM); assay: as above; details: first compound 0.2 µM
Method in brief: as §1

Cell Line	relative viability
LK-2	0.318
LOU-NH91	0.699
LU99A	0.88
LXF-289	0.388
NCI-H23	0.303
NCI-H322M	0.619
NCI-H358	0.19
